These are literature values, as cited in US20110269740A1, “JAK KINASE MODULATING COMPOUNDS AND METHODS OF USE THEREOF” (Ambit Biosciences Corporation, priority 2008, published 2011).

The structures appear in SMILES notation. Where two headings read alike, the source gives them in different places.

The subject of data set [1] is prostate cancer cell DU145.
Data set [2] has as its system CML cell lines such as 32Dp210 and K562, as well as mouse Bcr-Abl+32D cells. The note with it: CML cell lines 32Dp210, K562, mouse Bcr-Abl+32D.
For data set [3], the system named is BCR-Abl+BaF3 cells which carried the Abl T315I mutation. The note with it: imatinib-resistant.
Data set [4] concerns transplant rejection. The settings on record: murine heterotopic heart transplant model, orally available.
Data set [5] has as its system transplant rejection. The note with it: non-human primate renal transplant model, orally available.

Consider `N#C/C(=C/c1ccc(O)c(O)c1)C(=O)NCc1ccccc1` [AG490], for which the apoptosis entry was “induced apoptosis” in data set [1] and “induce apoptosis” in data set [3]. For the same compound, the “downstream effect on c-Myc” value in data set [2] is recorded as “reduction of c-Myc”.
For the compound `C[C@@H]1CCN(C(=O)CC#N)C[C@@H]1N(C)c1ncnc2[nH]ccc12` [CP-690550], the “prevention of transplant rejection” value with transplant rejection [4] and in the data set with transplant rejection [5] was “efficacy in preventing transplant rejection” in each case.
